The NIST ThermoML archive (doi:10.1021/je7003929)
± gives the expanded uncertainty stated by the source.

Assay: xn = mol fraction of the nth substance listed
Conditions: Liquid, Vibrating tube method

c1ccc2sccc2c1 [benzo[b]thiophene] + CCCCCC
Conditions | mass density [kg/m3]
312.99 K, 1009 kPa, x2 = 0.2588 | 1009 ± 0.5
312.99 K, 2023 kPa, x2 = 0.2588 | 1009.7 ± 0.5
312.99 K, 3016 kPa, x2 = 0.2588 | 1010.5 ± 0.5
312.99 K, 4029 kPa, x2 = 0.2588 | 1011.2 ± 0.5
312.99 K, 5004 kPa, x2 = 0.2588 | 1011.9 ± 0.5
312.99 K, 6021 kPa, x2 = 0.2588 | 1012.6 ± 0.5
312.99 K, 7031 kPa, x2 = 0.2588 | 1013.3 ± 0.5
312.99 K, 8005 kPa, x2 = 0.2588 | 1014 ± 0.5
312.99 K, 9022 kPa, x2 = 0.2588 | 1014.8 ± 0.5
312.99 K, 10016 kPa, x2 = 0.2588 | 1015.4 ± 0.5
312.99 K, 11004 kPa, x2 = 0.2588 | 1016.1 ± 0.5
312.99 K, 12015 kPa, x2 = 0.2588 | 1016.8 ± 0.5
312.99 K, 13015 kPa, x2 = 0.2588 | 1017.5 ± 0.5
312.99 K, 14003 kPa, x2 = 0.2588 | 1018.2 ± 0.5
312.99 K, 15011 kPa, x2 = 0.2588 | 1018.9 ± 0.5
312.99 K, 16003 kPa, x2 = 0.2588 | 1019.5 ± 0.5
312.99 K, 17010 kPa, x2 = 0.2588 | 1020.2 ± 0.5
312.99 K, 18002 kPa, x2 = 0.2588 | 1020.9 ± 0.5
312.99 K, 19029 kPa, x2 = 0.2588 | 1021.5 ± 0.5
312.99 K, 20017 kPa, x2 = 0.2588 | 1022.2 ± 0.5
313 K, 1011 kPa, x2 = 0.0629 | 1112.7 ± 0.5
313 K, 2027 kPa, x2 = 0.0629 | 1113.3 ± 0.5
313 K, 3046 kPa, x2 = 0.0629 | 1113.9 ± 0.5
313 K, 4018 kPa, x2 = 0.0629 | 1114.5 ± 0.5
313 K, 5014 kPa, x2 = 0.0629 | 1115.2 ± 0.5
313 K, 6016 kPa, x2 = 0.0629 | 1115.7 ± 0.5
313 K, 7014 kPa, x2 = 0.0629 | 1116.3 ± 0.5
313 K, 8008 kPa, x2 = 0.0629 | 1116.9 ± 0.5
313 K, 9013 kPa, x2 = 0.0629 | 1117.6 ± 0.5
313 K, 10003 kPa, x2 = 0.0629 | 1118.1 ± 0.5
313 K, 11005 kPa, x2 = 0.0629 | 1118.7 ± 0.5
313 K, 12017 kPa, x2 = 0.0629 | 1119.3 ± 0.5
313 K, 13017 kPa, x2 = 0.0629 | 1119.9 ± 0.5
313 K, 14023 kPa, x2 = 0.0629 | 1120.5 ± 0.5
313 K, 15024 kPa, x2 = 0.0629 | 1121 ± 0.5
313 K, 16016 kPa, x2 = 0.0629 | 1121.6 ± 0.5
313 K, 17014 kPa, x2 = 0.0629 | 1122.3 ± 0.6
313 K, 18019 kPa, x2 = 0.0629 | 1122.8 ± 0.6
313 K, 19014 kPa, x2 = 0.0629 | 1123.4 ± 0.6
313 K, 20000 kPa, x2 = 0.0629 | 1124 ± 0.6
313.11 K, 1023 kPa, x2 = 0.9432 | 669 ± 0.5
313.11 K, 2023 kPa, x2 = 0.9432 | 670 ± 0.5
313.11 K, 3037 kPa, x2 = 0.9432 | 671 ± 0.5
313.11 K, 4019 kPa, x2 = 0.9432 | 672.2 ± 0.5
313.11 K, 5025 kPa, x2 = 0.9432 | 673.3 ± 0.5
313.11 K, 6058 kPa, x2 = 0.9432 | 674.4 ± 0.5
313.11 K, 7008 kPa, x2 = 0.9432 | 675.5 ± 0.5
313.11 K, 8047 kPa, x2 = 0.9432 | 676.6 ± 0.5
313.11 K, 9025 kPa, x2 = 0.9432 | 677.6 ± 0.5
313.11 K, 10040 kPa, x2 = 0.9432 | 678.6 ± 0.5
313.11 K, 11000 kPa, x2 = 0.9432 | 679.6 ± 0.5
313.11 K, 12016 kPa, x2 = 0.9432 | 680.7 ± 0.5
313.11 K, 13019 kPa, x2 = 0.9432 | 681.6 ± 0.5
313.11 K, 14016 kPa, x2 = 0.9432 | 682.6 ± 0.5
313.11 K, 15029 kPa, x2 = 0.9432 | 683.6 ± 0.5
313.11 K, 16024 kPa, x2 = 0.9432 | 684.5 ± 0.5
313.11 K, 17011 kPa, x2 = 0.9432 | 685.5 ± 0.5
313.11 K, 18015 kPa, x2 = 0.9432 | 686.4 ± 0.6
313.11 K, 19046 kPa, x2 = 0.9432 | 687.4 ± 0.6
313.11 K, 20016 kPa, x2 = 0.9432 | 688.2 ± 0.6
313.13 K, 1017 kPa, x2 = 0.7491 | 761.8 ± 0.5
313.13 K, 2027 kPa, x2 = 0.7491 | 762.9 ± 0.5
313.13 K, 3031 kPa, x2 = 0.7491 | 764 ± 0.5
313.13 K, 4039 kPa, x2 = 0.7491 | 764.9 ± 0.5
313.13 K, 5021 kPa, x2 = 0.7491 | 765.9 ± 0.5
313.13 K, 6027 kPa, x2 = 0.7491 | 766.9 ± 0.5
313.13 K, 7021 kPa, x2 = 0.7491 | 767.9 ± 0.5
313.13 K, 8054 kPa, x2 = 0.7491 | 768.9 ± 0.5
313.13 K, 9007 kPa, x2 = 0.7491 | 769.8 ± 0.5
313.13 K, 10018 kPa, x2 = 0.7491 | 770.7 ± 0.5
313.13 K, 11018 kPa, x2 = 0.7491 | 771.6 ± 0.5
313.13 K, 12036 kPa, x2 = 0.7491 | 772.6 ± 0.5
313.13 K, 13021 kPa, x2 = 0.7491 | 773.5 ± 0.5
313.13 K, 14007 kPa, x2 = 0.7491 | 774.3 ± 0.5
313.13 K, 15006 kPa, x2 = 0.7491 | 775.2 ± 0.5
313.13 K, 16012 kPa, x2 = 0.7491 | 776 ± 0.5
313.13 K, 17016 kPa, x2 = 0.7491 | 776.9 ± 0.5
313.13 K, 18000 kPa, x2 = 0.7491 | 777.8 ± 0.5
313.13 K, 19017 kPa, x2 = 0.7491 | 778.6 ± 0.5
313.13 K, 20030 kPa, x2 = 0.7491 | 779.5 ± 0.5
313.15 K, 1025 kPa, x2 = 0.4495 | 910.7 ± 0.4
313.15 K, 2010 kPa, x2 = 0.4495 | 911.5 ± 0.4
313.15 K, 3028 kPa, x2 = 0.4495 | 912.4 ± 0.5
313.15 K, 4011 kPa, x2 = 0.4495 | 913.2 ± 0.5
313.15 K, 5013 kPa, x2 = 0.4495 | 914 ± 0.5
313.15 K, 6021 kPa, x2 = 0.4495 | 914.8 ± 0.5
313.15 K, 7010 kPa, x2 = 0.4495 | 915.6 ± 0.5
313.15 K, 8033 kPa, x2 = 0.4495 | 916.4 ± 0.5
313.15 K, 9029 kPa, x2 = 0.4495 | 917.2 ± 0.5
313.15 K, 10015 kPa, x2 = 0.4495 | 918 ± 0.5
313.15 K, 11018 kPa, x2 = 0.4495 | 918.8 ± 0.5
313.15 K, 12012 kPa, x2 = 0.4495 | 919.5 ± 0.5
313.15 K, 13010 kPa, x2 = 0.4495 | 920.3 ± 0.5
313.15 K, 14022 kPa, x2 = 0.4495 | 921 ± 0.5
313.15 K, 15019 kPa, x2 = 0.4495 | 921.8 ± 0.5
313.15 K, 16008 kPa, x2 = 0.4495 | 922.6 ± 0.5
313.15 K, 17018 kPa, x2 = 0.4495 | 923.3 ± 0.5
313.15 K, 18027 kPa, x2 = 0.4495 | 924.1 ± 0.5
313.15 K, 19006 kPa, x2 = 0.4495 | 924.8 ± 0.5
313.15 K, 20006 kPa, x2 = 0.4495 | 925.5 ± 0.5
322.05 K, 1026 kPa, x2 = 0.4495 | 901.9 ± 0.4
322.05 K, 2020 kPa, x2 = 0.4495 | 902.8 ± 0.4
322.05 K, 3015 kPa, x2 = 0.4495 | 903.7 ± 0.4
322.05 K, 4003 kPa, x2 = 0.4495 | 904.5 ± 0.5
322.05 K, 5014 kPa, x2 = 0.4495 | 905.4 ± 0.5
322.05 K, 6021 kPa, x2 = 0.4495 | 906.3 ± 0.5
322.05 K, 7015 kPa, x2 = 0.4495 | 907.2 ± 0.5
322.05 K, 8009 kPa, x2 = 0.4495 | 908 ± 0.5
322.05 K, 9028 kPa, x2 = 0.4495 | 908.9 ± 0.5
322.05 K, 10013 kPa, x2 = 0.4495 | 909.7 ± 0.5
322.05 K, 11021 kPa, x2 = 0.4495 | 910.5 ± 0.5
322.05 K, 12023 kPa, x2 = 0.4495 | 911.3 ± 0.5
322.05 K, 13008 kPa, x2 = 0.4495 | 912.1 ± 0.5
322.05 K, 14021 kPa, x2 = 0.4495 | 913 ± 0.5
322.05 K, 15012 kPa, x2 = 0.4495 | 913.7 ± 0.5
322.05 K, 16018 kPa, x2 = 0.4495 | 914.5 ± 0.5
322.05 K, 17012 kPa, x2 = 0.4495 | 915.3 ± 0.5
322.05 K, 18012 kPa, x2 = 0.4495 | 916.1 ± 0.5
322.05 K, 19007 kPa, x2 = 0.4495 | 916.9 ± 0.5
322.05 K, 20015 kPa, x2 = 0.4495 | 917.7 ± 0.5
322.89 K, 1017 kPa, x2 = 0.2588 | 1000 ± 0.5
322.89 K, 2023 kPa, x2 = 0.2588 | 1000.8 ± 0.5
322.89 K, 3021 kPa, x2 = 0.2588 | 1001.5 ± 0.5
322.89 K, 4016 kPa, x2 = 0.2588 | 1002.3 ± 0.5
322.89 K, 5026 kPa, x2 = 0.2588 | 1003.1 ± 0.5
322.89 K, 6030 kPa, x2 = 0.2588 | 1003.8 ± 0.5
322.89 K, 7028 kPa, x2 = 0.2588 | 1004.6 ± 0.5
322.89 K, 8018 kPa, x2 = 0.2588 | 1005.3 ± 0.5
322.89 K, 9014 kPa, x2 = 0.2588 | 1006 ± 0.5
322.89 K, 10021 kPa, x2 = 0.2588 | 1006.7 ± 0.5
322.89 K, 11005 kPa, x2 = 0.2588 | 1007.5 ± 0.5
322.89 K, 12022 kPa, x2 = 0.2588 | 1008.2 ± 0.5
322.89 K, 13013 kPa, x2 = 0.2588 | 1008.9 ± 0.5
322.89 K, 14012 kPa, x2 = 0.2588 | 1009.6 ± 0.5
322.89 K, 15017 kPa, x2 = 0.2588 | 1010.3 ± 0.5
322.89 K, 16016 kPa, x2 = 0.2588 | 1011 ± 0.5
322.89 K, 17002 kPa, x2 = 0.2588 | 1011.7 ± 0.5
322.89 K, 18014 kPa, x2 = 0.2588 | 1012.4 ± 0.5
322.89 K, 19024 kPa, x2 = 0.2588 | 1013.1 ± 0.5
322.89 K, 20016 kPa, x2 = 0.2588 | 1013.8 ± 0.5
